From patent US8716326B2, “Isoindolinone derivatives, preparation method thereof and a pharmaceutical composition comprising same” (Korea Research Institute of Chemical Technology, priority 2009, dated 2014) come the findings set out here.

Structures are written as SMILES.

For one test, the system named is Runx2. The experiment in a line: Runx2 activity, 6xOSE2-Luc luciferase reporter in transfected C2C12 cells. Particulars: Mus musculus, 24 hrs, read-out: luciferase activity relative to control set as 1. The test is classed as cell-based, Mouse. The gist of the method:
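C2C12 mouse premyoblasts carrying the 6xOSE2-Luc reporter (six tandem Runx2-binding OSE2 sites in pGL3) switched to 5% FBS DMEM after 24 h and treated with compound at 2.5, 5.0, 10 or 20 μM. After 24 h, lysate luciferase measured by dual-luciferase assay, expressed relative to DMSO vehicle set as 1.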

In a further test the test system is mice calvarias. The test can be described thus: Mice calvarias loss inhibition, bone loss induced by interleukin-1 in vivo. Particulars: IL-1 collagen sponge, 0.2 mg per mouse intraperitoneally, 7 days, vs vehicle. How it is done: Specifically, 5 to 7 ml of collagen (Cellmatrix type I-A; Wako co., Japan, Cat. No. 637-00653) was poured into petri dish (60×15 mm), and lyophlilized. The lyophlilized collagen sponge was made to the desired size which is appropriate to be implanted, and in order to induce local bone loss of mice, interleukin-1 (Peprotech; London, GB) was diluted with phosphate-buffered-saline solution to 2 μg per one mouse to be treated onto collagen sponge. The collagen sponge treated with interleukin-1 was contacted to the surface of mice carvarias through mice scalp incision, was implanted to 5 mice (5-week-male, ICR strain) in the test group and the control group, respectively, and was sutured. 7 days later, the mice were sacrificed to obtain calvarias. The test group was intraperitoneally injected with the dose of 0.2 mg of the compound obtained in Example 8 per one mouse from the next day of surgery to the day before the sacrifice. The control group was intraperitoneally injected with 100 μl of DMSO. After 7 days, the mice were sacrificed, and the extracted calvarias were washed 3-4 times with phosphate-buffered-saline solution and fixed in 4% paraformaldehyde for 24 hrs. Micro-computed tomography scan (SMX-90CT; Shimadzu, Japan) was performed for the fixed mice calvarias and 3-dimensional image thereof was obtained.
Further, bone mineral content (BMC) was measured by using TRI 3D-BON (RATOC system Engineering Co., Tokyo, Japan) based on the 3-dimensional image (see Volume Graphics, VG studio Max 1.2.1).
Histological studies were conducted in order to investigate the number of osteoclastic cells directly relating to bone loss. Specifically, the calvarias were decalcificated (solution was replaced every 2-3 days) with 12% EDTA (pH 7.2-7.4) for 14 days and embedded in paraffin. TRAP staining (Sigma-Aldrich) was performed on the embedded whole calvarias.
In addition, the whole area of osteoclast which is red-stained, that is, TRAP-positive was shown in graph by using image J program.
The procedure of the Experimental Example 3 was repeated except for using the compound obtained in Example 94 instead of the compound obtained in Example 8, to examine the effect on mice calvarias loss inhibition.
Histological studies were conducted in order to investigate the number of osteoclastic cells directly relating to bone loss. Specifically, the calvarias were decalcificated (solution was replaced every 2-3 days) with 12% EDTA (pH 7.2-7.4) for 14 days and embedded in paraffin.
H-E (Hematotoxin-eosin) and TRAP staining (Sigma-Aldrich) were performed on the embedded whole calvarias. The results are given in FIGS. 4b and 4c, respectively. In addition, the whole area of osteoclast of the test and control group was shown in graph by using image J program.

Another test concerns rats calvarias. The test can be described thus: Bone formation in rats calvarias loss site in vivo. Particulars: 8 mm calvarias hole, vs control. The method, then: To investigate the effect of the amide compound according to the present invention on bone formation, bone formation ability of the said compound in the rats calvarias loss site was examined in vivo by using the compounds obtained in Example 8 and 27.
Specifically, the hole of the diameter of 8 mm was made in calavarias of rats by using trephine bur, and the collagen sponge prepared in Experimental Example 3 treated with 0.2 mg of the compound obtained in Example 8 in 15 μl of DMSO was placed at the site of loss. As a control group, the collagen sponge treated with only 100 μl of DMSO was treated at the site of loss. After 6 days from the suture of the calvarias scalp, the rats were sacrificed to obtain calvarias. Micro-computed tomography scan (SMX-90CT; Shimadzu, Japan) was performed and 3-dimensional image thereof was obtained.
Further, bone mineral content (BMC) of the test and control group was measured by using TRI 3D-BON (RATOC system Engineering Co., Tokyo, JP) based on the 3-dimensional image (see, Volume Graphics, VG studio Max 1.2.1). […]
Further, bone mineral content (BMC) of the test and control group was measured by using TRI 3D-BON (RATOC system Engineering Co., Tokyo, JP) based on the 3-dimensional image.

Regarding `Cc1cc(C(=O)NCCCCCC(=O)NO)ccc1-c1ccccc1` [Example 94, N-(5-(hydroxycarbamoyl)pentyl)-3-methyl-4-phenylbenzamide], in the test on Runx2, the fold induction at 2.5 µM stood at 1.6, the fold induction at 5 µM is 3.4, the fold induction at 10 µM was 7.5 and the fold induction at 20 µM is 10.7. Further, in the test with mice calvarias, the “bone loss in calvarias (micro-computed tomography)” value is given as “suppressed” and the “osteoclast (TRAP-positive area)” value is “remarkably reduced”. In the test with rats calvarias (collagen sponge with 0.2 mg or 0.5 mg compound), the “BMC (bone content)” value was “unexpectedly increased”.
Regarding `COc1cc2c(c(-c3cncnc3)c1OC)CN(Cc1ccc(C(=O)Nc3ccccc3N)cc1)C2=O` [Example 8, N-(2-aminophenyl)-4-((5,6-dimethoxy-1-oxo-4-(pyrimidin-5-yl)isoindolin-2-yl)methyl)benzamide], in the test with Runx2, the fold induction at 2.5 µM is 28.5, the fold induction at 5 µM was 33.4, the fold induction at 10 µM is 36 and the fold induction at 20 µM was found to be 30.1. In the test with mice calvarias, the “bone loss in calvarias (micro-computed tomography)” value is “suppressed”, the “osteoclast (TRAP-positive area)” value was “remarkably reduced” and the “whole bone mineral content (BMC)” value is recorded as “increased”. The “BMC (bone content)” value with rats calvarias (collagen sponge with 0.2 mg compound) is “unexpectedly increased”.
Turning to `Cc1cc(C)cc(-c2cccc3c2CN(CCCCCC(=O)NO)C3=O)c1` [Example 41, N-hydroxy-6-(4-(3,5-dimethylphenyl)-1-oxoisoindolin-2-yl)hexanamide], in the test on Runx2, the fold induction at 2.5 µM was 2.5, the fold induction at 5 µM worked out at 4.6, the fold induction at 10 µM stood at 12.4 and the fold induction at 20 µM worked out at 28.
In the case of `Cc1cc(C(=O)NCCCCCC(=O)Nc2ccccc2N)ccc1Br` [Example 85, N-(5-(2-aminophenylcarbamoyl)pentyl)-4-bromo-3-methylbenzamide], in the test with Runx2, the fold induction at 2.5 µM turned out to be 2.15, the fold induction at 5 µM is 6.7, the fold induction at 10 µM stood at 13.9 and the fold induction at 20 µM came to 14.3.
Regarding `COc1cc2c(c(-c3cc(C)cc(C)c3)c1OC)CN(CCCCCC(=O)Nc1ccccc1N)C2=O` [Example 32, N-(2-aminophenyl)-6-(5,6-dimethoxy-4-(3,5-dimethylphenyl)-1-oxoisoindolin-2-yl)hexanamide], in the test on Runx2, the fold induction at 2.5 µM stood at 4.4, the fold induction at 5 µM was determined as 9.2, the fold induction at 10 µM was determined as 18.5 and the fold induction at 20 µM is 23.8.
Turning to `O=C(CCCCCN1Cc2cc(-c3cc(F)cc(F)c3)ccc2C1=O)NO` [Example 53, 6-(5-(3,5-difluorophenyl)-1-oxoisoindolin-2-yl)-N-hydroxyhexanamide], in the test with Runx2, the fold induction at 2.5 µM came out at 1.7, the fold induction at 5 µM came to 3, the fold induction at 10 µM amounted to 5.6 and the fold induction at 20 µM amounted to 13.3.
